Data: patent US10011555B2, “Methods of treating Parkinson's disease” (University of Macau, priority 2013, dated 2018)

Columns and labels:
[1] = system: primary cerebellar granule neurons (CGNs); test: MPP+-induced primary CGNs damage, cell viability by MTT; type: cell-based, Sprague-Dawley rats; settings: pre-treated 6 μM to 50 μM for 2 hours, then 150 μM MPP+ for 36 hours
Procedure: Primary cerebellar granule neurons (CGNs) were prepared from 8 days old Sprague-Dawley rats, as described in a previous publication (Du, Bales et al. 1997). CGNs cultured in vitro for 7 days were pre-treated with serial concentrations of compounds 1-5 from 6 μM to 50 μM respectively for 2 hours, vehicle group was incubated with 0.1% DMSO. The cells were then exposed to 150 μM MPP^+ for 36 hours. For assessment of the cell viability, 15 μl of 5 mg/ml MTT solution was added to each well containing cell in 100 μl of medium, and the plates were incubated for 4 hours in a humidified incubator at 37° C. After incubation, 100 μl of absolute DMSO was added and incubated for 10 min. Absorbance at 570 nm of each well was measured with a microplate reader.

[2] = system: primary cerebellar granule neurons (CGNs); test: Synergistic neuroprotective effect of compound 1 and chrysin on MPP+-induced primary CGNs damage; type: cell-based, Sprague-Dawley rats; settings: 25 and 50 μM of compound 1, p<0.05
Procedure: Primary cerebellar granule neurons (CGNs) were prepared from 8 days old Sprague-Dawley rats as described (Zhang et al., 2012). […] The cell viability was estimated similarly as in Example 5.
CGNs were also co-treated with compound 1 and chrysin to explore the pharmacological interaction between two compounds.

MPTP-injected mice = test: Behavioral testing (pole, rotarod, footprint) in MPTP-injected mice; type: in vivo, C57BL/6J mice; settings: 5, 10 and 20 mg/kg i.g., 7 days, MPTP 20 mg/kg i.p. x4
Procedure: Adult male C57BL/6J mice (8-10 weeks of age, 18-22 g) were used in this study. The animals were maintained in 12/12 h light/dark cycle and allowed access to food and water ad libitum. They were allowed to acclimate for 7 days before treatment. […] Then the mice were injected intraperitoneally (i.p.) with 20 mg/kg MPTP hydrochloride (Sigma Aldrich, St. Louis, Mo.), at 2 h internal for total 4 injections. Normal control group were received saline (0.1 mL/10 g) by i.p. One hour prior each MPTP injection, compound 1 (5, 10 and 20 mg/kg), rasagiline (1 mg/kg) and equal volume of vehicle (olive oil, 0.1 mL/10 g) were administrated by i.g. Then, compound 1, rasagiline or vehicle was given by i.g. once per day for total 7 days (day 1-7). Each of six groups was comprised of 10 mice. […] All the tests were done between 9 am and 2 pm under normal animal room lighting. The pole test was performed to detect impairment of limb movement. A table tennis ball (5 cm diameter) was equipped on the top of a vertical pole (55 cm length and 1 cm diameter). The pole was wrapped with a double layer of gauze to avoid slipping. The animal was placed head upward on the table tennis ball. […] The system logs the fall as the end of the experiment for that mouse, and the total time on the rotarod was recorded. […] The average retention time on the rod was calculated. […] Their footsteps were recorded on a white absorbing paper.

[3] = system: TH-positive dopaminergic neurons in the SNpc; test: TH immunohistochemistry of SNpc in MPTP-injected mice; type: in vivo, C57BL/6J mice
Procedure: Adult male C57BL/6J mice (8-10 weeks of age, 18-22 g) were used in this study. The animals were maintained in 12/12 h light/dark cycle and allowed access to food and water ad libitum. They were allowed to acclimate for 7 days before treatment. […] Then the mice were injected intraperitoneally (i.p.) with 20 mg/kg MPTP hydrochloride (Sigma Aldrich, St. Louis, Mo.), at 2 h internal for total 4 injections. Normal control group were received saline (0.1 mL/10 g) by i.p. One hour prior each MPTP injection, compound 1 (5, 10 and 20 mg/kg), rasagiline (1 mg/kg) and equal volume of vehicle (olive oil, 0.1 mL/10 g) were administrated by i.g. Then, compound 1, rasagiline or vehicle was given by i.g. once per day for total 7 days (day 1-7). Each of six groups was comprised of 10 mice. Mice were sacrificed for tissue preparation on the day 9 as described in FIG. 6. Mice in each group were anesthetized and perfused intracardially with 0.9% sodium chloride containing heparin, and then fixed with 4% paraformaldehyde (PFA). […] The results were analyzed by counting the numbers of TH-positive cells at ×10 magnifications on a stereomicroscope (BX51, Olympus Corp. Japan). TH-positive cells in 8 position-matched sections of each mouse were counted manually by operator who was blinded to the drug treatment. […]

PC12 cells = test: 6-OHDA-induced PC12 cell damage and cytotoxicity on PC12 cells, cell viability by MTT; type: cell-based, Rat
Procedure: Rat pheochromocytoma cells (PC12) cells were seeded in c100 cm dishes at a density of 1.5˜2×10^6 cells/dish. After culturing in a medium with a low serum level (F-12K medium with 0.5% FBS) for 24 hours, the cells were pretreated with serial concentrations of compound 1 from 6 μM to 50 μM for 12 hours. The cells were then exposed to 1 mM 6-OHDA for 2 hours. Cell viability of cells was assessed similarly as described in Example 5.

zebrafish larvae = test: MPTP-induced reduction of total distance traveled of zebrafish larvae; type: in vivo; settings: 3 dpf larvae co-treated with 200 μM MPTP for 4 days
Procedure: The 3 dpf zebrafish larvae were co-treated with 200 μM MPTP and various concentrations of compound 1 for 4 days. At 7 dpf, the total distance the larvae traveled was recorded using a 96-well plate (with 1 fish/well and 12 larvae per group) filled with 200 μl embryo medium. Larvae were allowed to accommodate in the system for an hour before data acquisition. The swimming pattern of each larva was recorded for 10 min in 3 times, with each record session separated by 10 min. The total distance traveled was estimated as the distance (in mm) that the larva had moved during one session (10 min).

[4] = system: zebrafish dopaminergic neurons; test: MPTP-induced dopaminergic neuron loss in zebrafish, whole-mount TH immunostaining; type: in vivo; settings: co-treatment with 200 μM MPTP for 48 hours
Procedure: Zebrafish embryo was dechorinated at 1 day post fertilization (dpf) and was cultured under co-treatment of 200 μM MPTP and various concentrations of compound 1 for 48 hours. Afterwards, zebrafish was fixed in 4% paraformaldehyde in PBS for 5 hours, rinsed and stored at −20° C. in 100% EtOH. Whole-mount immunostaining was done by standard methods (Bitzur, Kam et al. 1994). Further, compound 1 can protect MPTP-induced dopaminergic neuron loss in zebrafish in a dose-dependent manner with Emax at the concentration of 5 μM as shown in FIG. 3B in which the results were expressed quantitatively as percentages of area of TH-positive cells in comparison to untreated control group.

SMILES: CC(C)[C@H](CCC(=O)O)C1=CC(C)(O)CCC1=O (stereo partly drawn) [Compound 2, (4S)-4-(3-hydroxy-3-methyl-6-oxocyclohex-1-enyl)-5-methylhexanoic acid]
- concentration of Emax of neuroprotective effect on MPP+-induced primary SD rat CGNs damage [1]: 50 µM

SMILES: Cc1ccc(O)c([C@H](CCC(=O)O)C(C)C)c1 [Compound 1, (R)-4-(2-hydroxy-5-methylphenyl)-5-methylhexanoic acid]
- cell viability vs MPP+ alone [2]: significantly enhanced
- concentration of Emax of neuroprotective effect on MPP+-induced primary SD rat CGNs damage [1]: 50 µM
- effect on movement abnormalities (pole test, foot printing duration and stride length, rotarod) (MPTP-injected mice): largely corrected the movement abnormalities in a dose-dependent manner
- effect on MPTP-induced TH-positive cell body loss in SNpc ([3]; compound 1 5, 10 and 20 mg/kg i.g., pre- and post-treatment, 7 days): significantly reduced the MPTP-induced TH-positive cell body loss in a dose-dependent manner
- concentration of maximum efficacy (Emax) of neuroprotective effect on 6-OHDA-induced PC12 cell damage (PC12 cells; 1 mM 6-OHDA for 2 hours): 50 µM
- cytotoxicity on PC12 cells (PC12 cells; all tested concentrations (6 μM to 50 μM), 12 hours): did not exhibit any cytotoxicity
- effect on 6-OHDA cytotoxicity to PC12 cells (PC12 cells; pretreated 6 μM to 50 μM for 12 hours, then 1 mM 6-OHDA for 2 hours): could alleviate the cytotoxic effect in a dose-dependent manner
- effect on MPTP-induced reduction of total distance traveled (zebrafish larvae): attenuated MPTP-induced reduction of total distance traveled of the larvae in a dose dependent manner
- effect on MPTP-induced DA neuron injury [4]: attenuated MPTP-induced DA neuron injury in a dose-dependent manner
- concentration of Emax of protection against MPTP-induced dopaminergic neuron loss in zebrafish ([4]; area of TH-positive cells): 5 µM

SMILES: Cc1ccc(O)c([C@@H](CCC(=O)O)C(C)C)c1 [Compound 4, (S)-4-(2-hydroxy-5-methylphenyl)-5-methylhexanoic acid]
- concentration of Emax of neuroprotective effect on MPP+-induced primary SD rat CGNs damage [1]: 12 µM

SMILES: Cc1ccc(O)c(C(CCC(=O)O)C(C)C)c1 (racemic) [Compound 5, 4-(2-hydroxy-5-methylphenyl)-5-methylhexanoic acid]
- concentration of Emax of neuroprotective effect on MPP+-induced primary SD rat CGNs damage [1]: 50 µM

SMILES: C#CCN[C@@H]1CCc2ccccc21 [rasagiline, reference compound]
- effect on MPTP-induced TH-positive cell body loss in SNpc ([3]; rasagiline 1 mg/kg i.g., same schedule): prevented against the MPTP-induced TH-positive cell body loss

SMILES: O=c1cc(-c2ccccc2)oc2cc(O)c(O)c(O)c12 [baicalein, reference compound]
- protection of PC12 cells against 6-OHDA-induced neuronal damage (PC12 cells; positive control at 100 μM): obviously protected

SMILES: CC(C)[C@@H](CCC(=O)O)C1=CC(C)(O)CCC1=O (stereo partly drawn) [Compound 3, (4R)-4-(3-hydroxy-3-methyl-6-oxocyclohex-1-enyl)-5-methylhexanoic acid]
- concentration of Emax of neuroprotective effect on MPP+-induced primary SD rat CGNs damage [1]: 25 µM
